What was measured:
A. oryzae laccase [1] = experiment: Enzyme inhibitory kinetics, A. oryzae laccase; assay type: biochemical, Aspergillus oryzae; conditions: read-out: ** Ki, simulated inhibitory constant by nonlinear fitting assuming competitive inhibition
Procedure: (§1) Enzyme inhibitory kinetics—The velocities during the generation of the product for each enzyme were measured by varying the substrate and inhibitor concentrations. Simultaneous and nonlinear fitting of all profiles in an inhibitor minimized the Χ^2 value of the differences of theoretical and experimental values in the Michaelis–Menten equation, expressed with the competitive, uncompetitive, noncompetitive, and mixed models. […] The reduced Χ^2 values between the models were compared based on F-statistic to select the most appropriate model. All fittings and statistical analyses were conducted using MATLAB from MathWorks (Natick, MA, USA).

laccases [2] = experiment: Enzyme inhibitory kinetics, laccases from both sources together; assay type: biochemical, T. versicolor and A. oryzae; conditions: nonlinear fitting of enzyme kinetics
Procedure: as §1

laccases [3] = experiment: Laccase activity assay, statements on both laccases together; assay type: biochemical, T. versicolor and A. oryzae; conditions: 50 μM
Procedure: (§2) Enzyme activity with inhibitors—All chemical reagents were purchased from either Tokyo Chemical Industry (Tokyo, Japan), ChemBridge (San Diego, CA, USA), or Sigma-Aldrich (St. Louis, MO, USA). The reaction mixture for the tyrosinase assay comprised 20 nM tyrosinase and 500 µM L-DOPA in phosphate-buffered saline. The solution for the ceruloplasmin activity assay comprised 20 nM ceruloplasmin and 500 µM N,N-dimethyl-p-phenylenediamine (DMPD) in 100 mM of sodium acetate buffer at a pH of 5.5. The DBH activity assay was conducted in a reaction mixture containing 10 nM DBH, 500 µM DMPD, and 500 µM tyramine. The solution for the laccase activity assay comprised either 150 nM T. versicolor laccase or 350 nM A. oryzae laccase and 500 µM L-DOPA in 100 mM sodium phosphate buffer with a pH of 5.5. All the solutions included 0.01% Triton X-100 and 5% DMSO in the absence or presence of the inhibitor. After the addition of inhibitors, the solutions were incubated for 15 min at 30 °C. The absorbances of tyrosinase, laccase, ceruloplasmin, and DBH were measured at 475, 475, 550, and 515 nm, respectively, after the addition of substrate to the mixture solution, in a time-dependent manner. […] The Cheng–Prusoff equation with Km was employed to convert the IC50 value into the inhibitory constant, Ki, for each inhibitor [46].

A. oryzae laccase [4] = experiment: Laccase activity assay (L-DOPA substrate), A. oryzae; assay type: biochemical, Aspergillus oryzae; conditions: Ki from IC50 by Cheng–Prusoff, 0.01% Triton X-100
Procedure: as §2

mushroom tyrosinase [5] = target: T1, mushroom tyrosinase (Agaricus bisporus, UniProt C7FF04); parameters: method as in PMID 24074025; conditions: cited from earlier work
T1 sequence (C7FF04 1-392): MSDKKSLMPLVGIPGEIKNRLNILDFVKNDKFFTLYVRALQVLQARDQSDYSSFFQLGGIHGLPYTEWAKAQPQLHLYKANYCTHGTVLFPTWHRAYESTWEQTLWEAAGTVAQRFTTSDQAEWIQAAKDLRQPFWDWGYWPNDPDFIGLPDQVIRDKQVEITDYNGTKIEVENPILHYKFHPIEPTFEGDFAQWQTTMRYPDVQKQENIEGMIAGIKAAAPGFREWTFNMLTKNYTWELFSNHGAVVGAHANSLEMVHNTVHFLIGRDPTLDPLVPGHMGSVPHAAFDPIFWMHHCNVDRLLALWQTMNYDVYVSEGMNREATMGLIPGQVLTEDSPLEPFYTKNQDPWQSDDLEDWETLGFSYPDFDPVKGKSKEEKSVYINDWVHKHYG

mushroom tyrosinase [6] = target: T1, mushroom tyrosinase; experiment: Tyrosinase enzyme activity assay (L-DOPA substrate); assay type: biochemical
Procedure: as §2

[7] = target: T2, dopamine-β-hydroxylase (DBH) (Homo sapiens, UniProt P09172); experiment: DBH activity assay (DMPD, tyramine); assay type: biochemical; conditions: for Ki: Ki from IC50 by Cheng–Prusoff
T2 construct: purchased
T2 sequence (P09172 1-617): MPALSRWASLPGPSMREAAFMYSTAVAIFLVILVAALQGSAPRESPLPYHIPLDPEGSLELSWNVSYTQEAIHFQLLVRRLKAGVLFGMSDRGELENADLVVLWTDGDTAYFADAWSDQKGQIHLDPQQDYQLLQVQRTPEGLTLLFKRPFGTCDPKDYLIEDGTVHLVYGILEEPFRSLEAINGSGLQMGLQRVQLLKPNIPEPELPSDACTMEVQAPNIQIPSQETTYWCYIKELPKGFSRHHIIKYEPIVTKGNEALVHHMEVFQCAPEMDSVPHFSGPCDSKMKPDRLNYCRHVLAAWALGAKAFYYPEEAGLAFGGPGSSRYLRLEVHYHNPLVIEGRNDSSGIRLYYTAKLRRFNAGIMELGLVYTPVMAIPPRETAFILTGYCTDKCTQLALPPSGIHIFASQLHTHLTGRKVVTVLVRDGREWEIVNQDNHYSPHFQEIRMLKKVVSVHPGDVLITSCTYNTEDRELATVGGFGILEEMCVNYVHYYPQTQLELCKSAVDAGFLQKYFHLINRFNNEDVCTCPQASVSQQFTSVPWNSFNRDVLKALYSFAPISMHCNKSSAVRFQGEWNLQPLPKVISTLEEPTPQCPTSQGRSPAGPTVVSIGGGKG
Procedure: as §2

T. versicolor laccase = target: T3, T. versicolor laccase (Trametes versicolor, UniProt Q12718); experiment: Laccase activity assay (L-DOPA substrate), T. versicolor; assay type: biochemical; conditions: Ki from IC50 by Cheng–Prusoff, 0.01% Triton X-100
T3 sequence (Q12718 21-519): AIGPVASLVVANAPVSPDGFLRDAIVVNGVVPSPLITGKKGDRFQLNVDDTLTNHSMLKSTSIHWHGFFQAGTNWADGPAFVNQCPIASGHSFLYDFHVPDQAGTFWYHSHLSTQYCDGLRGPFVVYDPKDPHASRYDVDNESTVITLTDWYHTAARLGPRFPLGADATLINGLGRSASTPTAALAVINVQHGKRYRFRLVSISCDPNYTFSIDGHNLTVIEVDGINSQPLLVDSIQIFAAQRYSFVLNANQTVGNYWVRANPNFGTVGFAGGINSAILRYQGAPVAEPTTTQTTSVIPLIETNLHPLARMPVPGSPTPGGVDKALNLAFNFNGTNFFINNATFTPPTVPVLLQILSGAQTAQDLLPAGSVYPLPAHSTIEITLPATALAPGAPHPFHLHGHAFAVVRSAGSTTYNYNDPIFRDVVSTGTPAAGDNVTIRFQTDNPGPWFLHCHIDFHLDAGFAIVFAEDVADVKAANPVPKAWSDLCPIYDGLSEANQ
Procedure: as §2

ceruloplasmin = target: T4, ceruloplasmin (Homo sapiens, UniProt P00450); experiment: Ceruloplasmin activity assay (DMPD substrate); assay type: biochemical; conditions: Ki from IC50 by Cheng–Prusoff
T4 construct: purchased
T4 sequence (P00450 20-1065): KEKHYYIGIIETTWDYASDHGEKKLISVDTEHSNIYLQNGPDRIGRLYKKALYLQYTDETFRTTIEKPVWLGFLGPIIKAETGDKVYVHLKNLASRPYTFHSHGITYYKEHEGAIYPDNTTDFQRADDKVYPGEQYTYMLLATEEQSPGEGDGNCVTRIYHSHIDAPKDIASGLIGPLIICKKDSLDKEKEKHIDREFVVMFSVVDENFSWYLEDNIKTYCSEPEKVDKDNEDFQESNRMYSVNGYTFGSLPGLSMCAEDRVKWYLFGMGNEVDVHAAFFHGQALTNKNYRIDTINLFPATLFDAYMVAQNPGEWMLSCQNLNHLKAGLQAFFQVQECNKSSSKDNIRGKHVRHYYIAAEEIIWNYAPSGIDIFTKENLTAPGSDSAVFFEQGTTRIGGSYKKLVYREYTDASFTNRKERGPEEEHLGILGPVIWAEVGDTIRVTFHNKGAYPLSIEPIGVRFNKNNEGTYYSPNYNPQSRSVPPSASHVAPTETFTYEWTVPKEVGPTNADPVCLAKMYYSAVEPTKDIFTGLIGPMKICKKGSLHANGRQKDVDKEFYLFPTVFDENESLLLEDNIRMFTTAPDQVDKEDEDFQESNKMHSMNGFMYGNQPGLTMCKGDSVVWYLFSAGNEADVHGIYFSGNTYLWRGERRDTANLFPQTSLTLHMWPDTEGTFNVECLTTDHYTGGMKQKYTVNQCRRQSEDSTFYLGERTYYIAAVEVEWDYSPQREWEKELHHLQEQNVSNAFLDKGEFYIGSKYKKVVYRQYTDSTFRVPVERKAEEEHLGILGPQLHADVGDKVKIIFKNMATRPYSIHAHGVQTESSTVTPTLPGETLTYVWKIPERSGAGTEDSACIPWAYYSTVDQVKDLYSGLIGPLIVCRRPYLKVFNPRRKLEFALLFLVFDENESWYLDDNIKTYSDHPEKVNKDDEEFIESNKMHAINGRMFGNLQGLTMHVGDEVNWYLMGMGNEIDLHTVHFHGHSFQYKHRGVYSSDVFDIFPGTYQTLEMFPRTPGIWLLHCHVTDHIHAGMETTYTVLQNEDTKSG
Procedure: as §2

Compound	Ki (A. oryzae laccase [1]) [µM]	Mechanism of inhibition (laccases [2])	inhibitory activities against laccases (laccases [3])	Ki (A. oryzae laccase [4]) [µM]	inhibition of DBH activity [7]	Ki [7] [µM]	further results
C[C@H](CS)C(=O)N1CCC[C@H]1C(=O)O [compound 11, captopril]	32.4	Competitive	substantial inhibitory activities	26.3 ± 2.4			inhibition of tyrosinase (words, literature) (mushroom tyrosinase [5]): slightly inhibited; Mechanism of inhibition (laccases [2]; listed as captopril): competitive mode; Ki (A. oryzae laccase [4]; listed as captopril): 26 µM; inhibition of tyrosinase activity (mushroom tyrosinase [6]): inhibits tyrosinase activity
Cn1cc[nH]c1=S [compound 16, methimazole]							inhibition of DBH at single concentration ([7]; 50 µM): neither methimazole nor other thione-containing test molecules significantly inhibited DBH
OCC(S)CS (stereo not drawn) [compound 18, dimercaptopropanol]	18	Competitive	substantial inhibitory activities	18.6 ± 3.3	moderate inhibition	57.9 ± 7.6	Mechanism of inhibition (laccases [2]; listed as dimercaptopropanol): competitive mode; Ki (A. oryzae laccase [4]; listed as dimercaptopropanol): 18 µM
NC(=S)Nc1ccccc1 [compound 24, phenylthiourea (PTU)]				> 1000			
O=c1cccccc1O [compound 26, tropolone]				> 1000	significantly decreased DBH activity	9.3 ± 5.5	
[N-]=[N+]=[N-].[Na+] [compound 27, sodium azide]				3.1 ± 1.7	moderate inhibition	70.6 ± 11.6	Ki (T. versicolor laccase): 4.2 ± 1.3 µM; Ki (T. versicolor laccase; listed as sodium azide): 4 µM; Ki (ceruloplasmin): 1.6 ± 0.3 µM; Ki (A. oryzae laccase [4]; listed as sodium azide): 3 µM
[NH4+].[NH4+].[SH-].[SH-].[S]=[Mo]=[S] [compound 28, ammonium tetrathiomolybdate (ATMD)]				10.5 ± 2.5	significantly decreased DBH activity	23.7 ± 2.7	Ki (T. versicolor laccase): 12.3 ± 1.3 µM; Ki (T. versicolor laccase; listed as AMTD): 12 µM; Ki (ceruloplasmin): 10.9 ± 1.4 µM; Ki (A. oryzae laccase [4]; listed as AMTD): 10 µM

Second part, led by results:

Ki (A. oryzae laccase [1]) [µM]	Mechanism of inhibition (laccases [2])	inhibitory activities against laccases (laccases [3])	Ki (A. oryzae laccase [4]) [µM]	Compound	inhibition of DBH activity [7]	Ki [7] [µM]	further results
17.2	Competitive	substantial inhibitory activities	15.1 ± 4.6	S=c1[nH]cnc2nc[nH]c12 [compound 1, mercaptopurine]			Mechanism of inhibition (laccases [2]; listed as mercaptopurine): competitive mode; Ki (A. oryzae laccase [4]; listed as mercaptopurine): 15 µM
26.2	Competitive	substantial inhibitory activities	21.2 ± 1.7	Nc1nc2nc[nH]c2c(=S)[nH]1 [compound 2, thioguanine]			Mechanism of inhibition (laccases [2]; listed as thioguanine): competitive mode; Ki (A. oryzae laccase [4]; listed as thioguanine): 21 µM
			> 1000	O=c1cc(CO)occ1O [compound 12, kojic acid]			
13.1	Competitive	substantial inhibitory activities	37.3 ± 5.6	O=C(O)C(S)C(S)C(=O)O (stereo not drawn) [compound 19, dimercaptosuccinate]			Mechanism of inhibition (laccases [2]; listed as dimercaptosuccinate): competitive mode; Ki (A. oryzae laccase [4]; listed as dimercaptosuccinate): 37 µM

— PMC8707586, “New Inhibitors of Laccase and Tyrosinase by Examination of Cross-Inhibition between Copper-Containing Enzymes” (International Journal of Molecular Sciences, 2021)
